In ChEMBL document CHEMBL4308849, “Antimalarial Lead-Optimization Studies on a 2,6-Imidazopyridine Series within a Constrained Chemical Space To Circumvent Atypical Dose-Response Curves against Multidrug Resistant Parasite Strains” (J Med Chem, 2018):

Experiments:
[1] = Metabolic stability in mouse liver microsomes assessed as parent compound remaining at 0.1 uM after 60 mins in presence of NADPH by LC-MS/MS analysis; assay type: ADME, Microsome; settings: read-out: Stability
[2] = Metabolic stability in rat liver microsomes assessed as parent compound remaining at 0.1 uM after 60 mins in presence of NADPH by LC-MS/MS analysis; assay type: ADME, Microsome; settings: read-out: Stability
[3] = Metabolic stability in human liver microsomes assessed as parent compound remaining at 0.1 uM after 60 mins in presence of NADPH by LC-MS/MS analysis; assay type: ADME, Microsome; settings: read-out: Stability
[4] = Oral bioavailability in Balb/c mouse at 20 mg/kg by LC-MS/MS analysis; assay type: ADME, organism-based; settings: in vivo
[5] = Cmax in Balb/c mouse at 20 mg/kg, po by LC-MS/MS analysis; assay type: ADME, organism-based; design: dose 20 mg/kg, route oral; settings: in vivo
[6] = AUC (0 to infinity) in Balb/c mouse at 2 mg/kg, iv by LC-MS/MS analysis; assay type: ADME, organism-based; design: dose 2 mg/kg, route intravenous, time infinity; settings: in vivo
[7] = Blood clearance in Balb/c mouse at 2 mg/kg, iv by LC-MS/MS analysis; assay type: ADME, organism-based; settings: whole blood
[8] = Volume of distribution in Balb/c mouse at 2 mg/kg, iv by LC-MS/MS analysis; assay type: ADME, organism-based; settings: in vivo
[9] = AUC (0 to infinity) in Balb/c mouse at 20 mg/kg, po by LC-MS/MS analysis; assay type: ADME, organism-based; design: dose 20 mg/kg, route oral, time infinity; settings: in vivo
[10] = Tmax in Balb/c mouse at 20 mg/kg, po by LC-MS/MS analysis; assay type: ADME, organism-based; settings: in vivo
[11] = Half life in Balb/c mouse at 2 mg/kg, iv by LC-MS/MS analysis; assay type: ADME, organism-based; settings: in vivo

| Compound | remaining at 1 h, 0.1 µM [1] [%] | remaining at 1 h, 0.1 µM [2] [%] | remaining at 1 h, 0.1 µM [3] [%] | other results |
| --- | --- | --- | --- | --- |
| CC(C)CN1CCN(c2ccc(Nc3cc4[nH]c(C5CCC(F)(F)CC5)nc4cn3)nc2)CC1 | 61 | 64 | 59 | – |
| Fc1ccc(-c2nc3cnc(Nc4ccc(C5CCNCC5)cn4)cc3[nH]2)cc1F | 87 | 97 | 98 | – |
| FC1(F)CC(c2nc3cnc(Nc4ccc(N5CCN(CC6CC6)CC5)cn4)cc3[nH]2)C1 | 54 | 52 | 86 | – |
| FC(F)(F)c1ccc(-c2nc3cnc(Nc4ccc(N5CCN(CC6CC6)CC5)cn4)cc3[nH]2)cn1 | 68 | 55 | 93 | – |
| CC(C)(C)N1CCN(C(=O)c2ccnc(Nc3cc4[nH]c(-c5cccc(C(F)(F)F)c5)nc4cn3)c2)CC1 | 26 | 48 | 65 | bioavailability [4]: 2%; Cmax [5]: 40 nM; AUC(0-inf) [6]: 0.933 µM·h; clearance [7]: 68 mL/min/kg; Vd [8]: 117 L/kg; AUC(0-inf) [9]: 0.2 µM·h; Tmax [10]: 0.5 h; half-life [11]: 19 h |
| Fc1ccc(-c2nc3cnc(Nc4ccc(N5CCN(CC6CC6)CC5)cn4)cc3[nH]2)cc1F | 14 | 9 | 7 | – |

Now from value to compound, other results behind:

| remaining at 1 h, 0.1 µM [1] [%] | remaining at 1 h, 0.1 µM [2] [%] | remaining at 1 h, 0.1 µM [3] [%] | Compound | other results |
| --- | --- | --- | --- | --- |
| 75 | 73 | 92 | Fc1ccc(-c2nc3cnc(Nc4ccc(N5CCNCC5)cn4)cc3[nH]2)cc1F | – |
| 78 | 73 | 98 | Fc1ccc(Nc2cc3[nH]c(Nc4cc(N5CCNCC5)ccn4)nc3cn2)cc1C(F)(F)F | – |
| 41 | 36 | 52 | Fc1ccc(-c2nc3cnc(Nc4ccc(N5CCN(CC6CC6)CC5)cn4)cc3[nH]2)cc1C(F)(F)F | – |
| 93 | 53 | 77 | O=C(c1ccnc(Nc2cc3[nH]c(-c4ccc(F)c(C(F)(F)F)c4)nc3cn2)c1)N1CCN(C2CC2)CC1 | – |
| 55 | 59 | 92 | Fc1ccc(Nc2cc3[nH]c(Nc4ccc(N5CCNCC5)cn4)nc3cn2)cc1C(F)(F)F | – |
